Test results: US9833497B2, “Human originated EGF domain proteins and use of the same” (CHENGDU SOURCEBIO LIMITED-LIABILITY COMPANY, priority 2013, dated 2017)

What was measured:
Format in all cases: cell-based
Citrobacter diversus = assay: MIC against Gram-negative bacteria: Citrobacter diversus; conditions: 5×10^5 CFU/mL
Summary of the method: (§1)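 Growth inhibition by human EGF domain proteins was scored in LB liquid culture seeded at 5×10^5 CFU/mL. Protein was applied as a two-fold dilution series in triplicate, with shaking incubation at 37° C; MIC is the lowest concentration giving no growth.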

E. coli BL21 = assay: MIC against Gram-negative bacteria: E. coli BL21; conditions: 5×10^5 CFU/mL
Summary of the method: as §1

Aeromonas hydrophila = assay: MIC against Gram-negative bacteria: Aeromonas hydrophila; conditions: 5×10^5 CFU/mL
Summary of the method: as §1

Enterobacter cloacae = assay: MIC against Gram-negative bacteria: Enterobacter cloacae; conditions: 5×10^5 CFU/mL
Summary of the method: as §1

Proteus vulgaris = assay: MIC against Gram-negative bacteria: Proteus vulgaris; conditions: 5×10^5 CFU/mL
Summary of the method: as §1

Serratia marcescens = assay: MIC against Gram-negative bacteria: Serratia marcescens; conditions: 5×10^5 CFU/mL
Summary of the method: as §1

Proteus mirabilis = assay: MIC against Gram-negative bacteria: Proteus mirabilis; conditions: 5×10^5 CFU/mL
Summary of the method: as §1

Pseudomonas aeruginosa = assay: MIC against Gram-negative bacteria: Pseudomonas aeruginosa; conditions: 5×10^5 CFU/mL
Summary of the method: as §1

Klebsiella pneumonia = assay: MIC against Gram-negative bacteria: Klebsiella pneumonia; conditions: 5×10^5 CFU/mL
Summary of the method: as §1

Moraxella catarrhalis = assay: MIC against Gram-negative bacteria: Moraxella catarrhalis; conditions: 5×10^5 CFU/mL
Summary of the method: as §1

E. coli DH5α = assay: Antibacterial activity: MIC and growth curve against E. coli DH5α in 96-well plate; conditions: minimal inhibitory concentration against E. coli DH5α; 96-well plate, 5×10^5 CFU/mL, 37° C., judged after 8 h
Summary of the method: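 Log-phase bacteria (OD600 ~0.5) resuspended in LB at 5×10^5 CFU/mL, exposed to recombinant protein at 50, 25, 12.5 μg/mL final in triplicate, 37 °C shaking at 175 rpm. OD600 read every 30 min; MIC is lowest concentration showing no growth.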

[1] = Citrobacter diversus, 96-well plate, 37° C., 10 h
[2] = E. coli BL21, 96-well plate, 37° C., 10 h
[3] = Aeromonas hydrophila, 96-well plate, 37° C., 10 h
[4] = Enterobacter cloacae, 96-well plate, 37° C., 10 h
[5] = Proteus vulgaris, 96-well plate, 37° C., 10 h
[6] = Serratia marcescens, 96-well plate, 37° C., 10 h
[7] = Proteus mirabilis, 96-well plate, 37° C., 10 h
[8] = Pseudomonas aeruginosa, 96-well plate, 37° C., 10 h
[9] = Klebsiella pneumonia, 96-well plate, 37° C., 10 h
[10] = Moraxella catarrhalis, 96-well plate, 37° C., 10 h
[11] = C. diversus, 10 h cultivation at 37° C.
[12] = E. coli BL21, 10 h cultivation at 37° C.
[13] = A. hydrophila, 10 h cultivation at 37° C.
[14] = E. cloacae, 10 h cultivation at 37° C.
[15] = P. vulgaris, 10 h cultivation at 37° C.
[16] = S. marcescens, 10 h cultivation at 37° C.
[17] = P. mirabilis, 10 h cultivation at 37° C.
[18] = P. aeruginosa, 10 h cultivation at 37° C.
[19] = K. pneumonia, 10 h cultivation at 37° C.
[20] = M. catarrhalis, 10 h cultivation at 37° C.
[21] = Citrobacter diversus, 10 h cultivation at 37° C.
[22] = Aeromonas hydrophila, 10 h cultivation at 37° C.
[23] = Enterobacter cloacae, 10 h cultivation at 37° C.
[24] = Proteus vulgaris, 10 h cultivation at 37° C.
[25] = Serratia marcescens, 10 h cultivation at 37° C.
[26] = Proteus mirabilis, 10 h cultivation at 37° C.
[27] = Pseudomonas aeruginosa, 10 h cultivation at 37° C.
[28] = Klebsiella pneumonia, 10 h cultivation at 37° C.
[29] = Moraxella catarrhalis, 10 h cultivation at 37° C.
[30] = 10 h cultivation at 37° C., two-fold serial dilution

Substance: PRT1336 (DCNQCPGGFSNPCSGNGQCADSLGGNGTCICEEGFQGSQCQ; listed as Homo sapiens)
- MIC against C. diversus (Citrobacter diversus; [1]): 50 µg/mL
- MIC against E. coli BL21 (E. coli BL21; [2]): 50 µg/mL
- MIC against A. hydrophila (Aeromonas hydrophila; [3]): 12.5 µg/mL
- MIC against E. cloacae (Enterobacter cloacae; [4]): 25 µg/mL
- MIC against P. vulgaris (Proteus vulgaris; [5]): 12.5 µg/mL
- MIC against S. marcescens (Serratia marcescens; [6]): 50 µg/mL
- MIC against P. mirabilis (Proteus mirabilis; [7]): 50 µg/mL
- MIC against P. aeruginosa (Pseudomonas aeruginosa; [8]): 12.5 µg/mL
- MIC against K. pneumonia (Klebsiella pneumonia; [9]): 50 µg/mL
- MIC against M. catarrhalis (Moraxella catarrhalis; [10]): 12.5 µg/mL
- MIC (E. coli DH5α): 12.5 µg/mL

Substance: PRT569 (CDCDLGGALNNSCFAESGQCSCRPHMIGRQC; listed as Homo sapiens)
- MIC against C. diversus (Citrobacter diversus; 96-well plate, 37° C., 10 h): 100 µg/mL
- MIC against E. coli BL21 (E. coli BL21; 96-well plate, 37° C., 10 h): 12.5 µg/mL
- MIC against A. hydrophila (Aeromonas hydrophila; 96-well plate, 37° C., 10 h): 25 µg/mL
- MIC against E. cloacae (Enterobacter cloacae; 96-well plate, 37° C., 10 h): 12.5 µg/mL
- MIC against P. vulgaris (Proteus vulgaris; 96-well plate, 37° C., 10 h): 25 µg/mL
- MIC against S. marcescens (Serratia marcescens; 96-well plate, 37° C., 10 h): 12.5 µg/mL
- MIC against P. mirabilis (Proteus mirabilis; 96-well plate, 37° C., 10 h): 12.5 µg/mL
- MIC against P. aeruginosa (Pseudomonas aeruginosa; 96-well plate, 37° C., 10 h): 25 µg/mL
- MIC against K. pneumonia (Klebsiella pneumonia; 96-well plate, 37° C., 10 h): 12.5 µg/mL
- MIC against M. catarrhalis (Moraxella catarrhalis; 96-well plate, 37° C., 10 h): 25 µg/mL
- MIC (E. coli DH5α): 25 µg/mL

Substance: PRT1258 (GRTCIETCAVNNGGCDRTCKDTATGVRCSCPVGFTLQPD; listed as Homo sapiens)
- MIC against C. diversus (Citrobacter diversus; [1]): 50 µg/mL
- MIC against E. coli BL21 (E. coli BL21; [2]): 25 µg/mL
- MIC against A. hydrophila (Aeromonas hydrophila; [3]): 25 µg/mL
- MIC against E. cloacae (Enterobacter cloacae; [4]): 12.5 µg/mL
- MIC against P. vulgaris (Proteus vulgaris; [5]): 25 µg/mL
- MIC against S. marcescens (Serratia marcescens; [6]): 12.5 µg/mL
- MIC against P. mirabilis (Proteus mirabilis; [7]): 50 µg/mL
- MIC against P. aeruginosa (Pseudomonas aeruginosa; [8]): 50 µg/mL
- MIC against K. pneumonia (Klebsiella pneumonia; [9]): 25 µg/mL
- MIC against M. catarrhalis (Moraxella catarrhalis; [10]): 12.5 µg/mL
- MIC (E. coli DH5α): 12.5 µg/mL

Substance: PRT224 (DVNECDMGAPCEQRCFNSYGTFLCRCHQGYELHRDGFSCS; listed as Homo sapiens)
- MIC (μg/mL) C. diversus (Citrobacter diversus; [11]): 12.5 µg/mL
- MIC (μg/mL) E. coli BL21 (E. coli BL21; [12]): 12.5 µg/mL
- MIC (μg/mL) A. hydrophila (Aeromonas hydrophila; [13]): 12.5 µg/mL
- MIC (μg/mL) E. cloacae (Enterobacter cloacae; [14]): 12.5 µg/mL
- MIC (μg/mL) P. vulgaris (Proteus vulgaris; [15]): 12.5 µg/mL
- MIC (μg/mL) S. marcescens (Serratia marcescens; [16]): 50 µg/mL
- MIC (μg/mL) P. mirabilis (Proteus mirabilis; [17]): 12.5 µg/mL
- MIC (μg/mL) P. aeruginosa (Pseudomonas aeruginosa; [18]): 25 µg/mL
- MIC (μg/mL) K. pneumonia (Klebsiella pneumonia; [19]): 12.5 µg/mL
- MIC (μg/mL) M. catarrhalis (Moraxella catarrhalis; [20]): 12.5 µg/mL
- MIC (E. coli DH5α): 25 µg/mL

Substance: PRT1281 (DLCLSSPCQNQGTCHNDPLEVYRCACPSGYKGRDCE; listed as Homo sapiens)
- MIC against C. diversus (Citrobacter diversus; [1]): 50 µg/mL
- MIC against E. coli BL21 (E. coli BL21; [2]): 12.5 µg/mL
- MIC against A. hydrophila (Aeromonas hydrophila; [3]): 12.5 µg/mL
- MIC against E. cloacae (Enterobacter cloacae; [4]): 25 µg/mL
- MIC against P. vulgaris (Proteus vulgaris; [5]): 12.5 µg/mL
- MIC against S. marcescens (Serratia marcescens; [6]): 50 µg/mL
- MIC against P. mirabilis (Proteus mirabilis; [7]): 50 µg/mL
- MIC against P. aeruginosa (Pseudomonas aeruginosa; [8]): 25 µg/mL
- MIC against K. pneumonia (Klebsiella pneumonia; [9]): 50 µg/mL
- MIC against M. catarrhalis (Moraxella catarrhalis; [10]): 12.5 µg/mL
- MIC (E. coli DH5α): 50 µg/mL

Substance: PRT842 (CGCSFHSHCRKRGPGFCDECQDWTWGEHCERCRPGSFGNATGSRGCRP; listed as Homo sapiens)
- MIC (μg/mL) C. diversus (Citrobacter diversus; [11]): 12.5 µg/mL
- MIC (μg/mL) E. coli BL21 (E. coli BL21; [12]): 12.5 µg/mL
- MIC (μg/mL) A. hydrophila (Aeromonas hydrophila; [13]): 25 µg/mL
- MIC (μg/mL) E. cloacae (Enterobacter cloacae; [14]): 12.5 µg/mL
- MIC (μg/mL) P. vulgaris (Proteus vulgaris; [15]): 12.5 µg/mL
- MIC (μg/mL) S. marcescens (Serratia marcescens; [16]): 25 µg/mL
- MIC (μg/mL) P. mirabilis (Proteus mirabilis; [17]): 12.5 µg/mL
- MIC (μg/mL) P. aeruginosa (Pseudomonas aeruginosa; [18]): 25 µg/mL
- MIC (μg/mL) K. pneumonia (Klebsiella pneumonia; [19]): 25 µg/mL
- MIC (μg/mL) M. catarrhalis (Moraxella catarrhalis; [20]): 25 µg/mL
- MIC (E. coli DH5α): 12.5 µg/mL

Substance: PRT1394 (VRDGCPGLCFGNGRCTLDQNGWHCVCQVGWSGTGCN; listed as Homo sapiens)
- MIC against C. diversus (Citrobacter diversus; [21]): 50 µg/mL
- MIC against E. coli BL21 (E. coli BL21; [12]): 12.5 µg/mL
- MIC against A. hydrophila (Aeromonas hydrophila; [22]): 25 µg/mL
- MIC against E. cloacae (Enterobacter cloacae; [23]): 12.5 µg/mL
- MIC against P. vulgaris (Proteus vulgaris; [24]): 25 µg/mL
- MIC against S. marcescens (Serratia marcescens; [25]): 50 µg/mL
- MIC against P. mirabilis (Proteus mirabilis; [26]): 12.5 µg/mL
- MIC against P. aeruginosa (Pseudomonas aeruginosa; [27]): 12.5 µg/mL
- MIC against K. pneumonia (Klebsiella pneumonia; [28]): 50 µg/mL
- MIC against M. catarrhalis (Moraxella catarrhalis; [29]): 25 µg/mL
- MIC (E. coli DH5α): 50 µg/mL

Substance: PRT1390 (EEDCLDPMCSNHGICVKGECHCSTGWGGVNCET; listed as Homo sapiens)
- MIC against C. diversus (Citrobacter diversus; [21]): 25 µg/mL
- MIC against E. coli BL21 (E. coli BL21; [12]): 12.5 µg/mL
- MIC against A. hydrophila (Aeromonas hydrophila; [22]): 50 µg/mL
- MIC against E. cloacae (Enterobacter cloacae; [23]): 12.5 µg/mL
- MIC against P. vulgaris (Proteus vulgaris; [24]): 50 µg/mL
- MIC against S. marcescens (Serratia marcescens; [25]): 50 µg/mL
- MIC against P. mirabilis (Proteus mirabilis; [26]): 25 µg/mL
- MIC against P. aeruginosa (Pseudomonas aeruginosa; [27]): 12.5 µg/mL
- MIC against K. pneumonia (Klebsiella pneumonia; [28]): 50 µg/mL
- MIC against M. catarrhalis (Moraxella catarrhalis; [29]): 50 µg/mL
- MIC (E. coli DH5α): 12.5 µg/mL

Substance: PRT415 (DINECLSISAPCPIGHTCINTEGSYTCQKNVPNCGRGYHLNEEGTRCV; listed as Homo sapiens)
- MIC (Citrobacter diversus; [11]): 25 µg/mL
- MIC (E. coli BL21; [12]): 12.5 µg/mL
- MIC (Aeromonas hydrophila; [13]): 12.5 µg/mL
- MIC (Enterobacter cloacae; [14]): 25 µg/mL
- MIC (Proteus vulgaris; [15]): 12.5 µg/mL
- MIC (Serratia marcescens; [16]): 25 µg/mL
- MIC (Proteus mirabilis; [17]): 25 µg/mL
- MIC (Pseudomonas aeruginosa; [18]): 25 µg/mL
- MIC (Klebsiella pneumonia; [19]): 50 µg/mL
- MIC (Moraxella catarrhalis; [20]): 50 µg/mL
- MIC (E. coli DH5α): 25 µg/mL

Substance: PRT1138 (EINECDSDPCMNGGLCHESTIPGQFVCLCPPLYTGQFCH; listed as Homo sapiens)
- MIC C. diversus (Citrobacter diversus; [30]): 50 µg/mL
- MIC E. coli BL21 (E. coli BL21; [30]): 50 µg/mL
- MIC A. hydrophila (Aeromonas hydrophila; [30]): 25 µg/mL
- MIC E. cloacae (Enterobacter cloacae; [30]): 25 µg/mL
- MIC P. vulgaris (Proteus vulgaris; [30]): 25 µg/mL
- MIC S. marcescens (Serratia marcescens; [30]): 50 µg/mL
- MIC P. mirabilis (Proteus mirabilis; [30]): 12.5 µg/mL
- MIC P. aeruginosa (Pseudomonas aeruginosa; [30]): 25 µg/mL
- MIC K. pneumonia (Klebsiella pneumonia; [30]): 12.5 µg/mL
- MIC M. catarrhalis (Moraxella catarrhalis; [30]): 25 µg/mL
- MIC (E. coli DH5α): 25 µg/mL
